Laboratory results as given in ChEMBL document CHEMBL3351988, “Synthesis and biological evaluation of novel 6-chloro-quinazolin derivatives as potential antitumor agents” (Eur J Med Chem, 2014).
Counter-ions that a name gives are not always drawn. Calls of active or inactive are those of the source. No cut-off for these calls is given here.

Experiments:
Bcap37 [1] = assay: Growth inhibition of human Bcap37 cells after 72 hrs by MTT assay; assay type: functional, cell-based; details: Bcap37, 72 h
Bcap37 [2] = assay: Growth inhibition of human Bcap37 cells at 10 uM after 72 hrs by MTT assay; assay type: functional; details: Bcap37, 72 h, read-out: GI
[3] = Growth inhibition of human PC3 cells after 72 hrs by MTT assay; assay type: functional, cell-based; details: PC-3, 72 h
MGC-803 [4] = assay: Growth inhibition of human MGC803 cells at 10 uM after 72 hrs by MTT assay; assay type: functional; details: MGC-803, 72 h, read-out: GI
MGC-803 [5] = assay: Growth inhibition of human MGC803 cells after 72 hrs by MTT assay; assay type: functional, cell-based; details: MGC-803, 72 h
[6] = Growth inhibition of human PC3 cells at 10 uM after 72 hrs by MTT assay; assay type: functional; details: PC-3, 72 h, read-out: GI
MGC-803 [7] = assay: Induction of apoptosis in human MGC803 cells at 1 uM after 6 hrs by Annexin V-FITC staining based flow cytometry; assay type: functional
MGC-803 [8] = assay: Induction of apoptosis in human MGC803 cells at 1 uM after 24 hrs by Annexin V-FITC staining based flow cytometry; assay type: functional
Bcap37 [9] = assay: Induction of apoptosis in human Bcap37 cells assessed as late apoptotic cell level at 10 uM after 12 hrs by AO/EB staining based fluorescence microscopy; assay type: functional
Bcap37 [10] = assay: Induction of apoptosis in human Bcap37 cells assessed as condensed chromatin at 10 uM after 12 hrs by Hoechst 33258 staining based fluorescence microscopy; assay type: functional, cell-based
MGC-803 [11] = assay: Induction of apoptosis in human MGC803 cells assessed as DNA fragmentation at 10 uM after 12 hrs by TUNEL assay; assay type: functional, cell-based
MGC-803 [12] = assay: Induction of apoptosis in human MGC803 cells assessed as early apoptotic cell level at 10 uM after 12 hrs by AO/EB staining based fluorescence microscopy; assay type: functional
Bcap37 [13] = assay: Induction of apoptosis in human Bcap37 cells assessed as early apoptotic cell level at 10 uM after 12 hrs by AO/EB staining based fluorescence microscopy; assay type: functional
MGC-803 [14] = assay: Induction of apoptosis in human MGC803 cells assessed as condensed chromatin at 10 uM after 12 hrs by Hoechst 33258 staining based fluorescence microscopy; assay type: functional, cell-based
MGC-803 [15] = assay: Induction of apoptosis in human MGC803 cells at 5 uM after 12 hrs by Annexin V-FITC staining based flow cytometry; assay type: functional
MGC-803 [16] = assay: Induction of apoptosis in human MGC803 cells at 10 uM after 6 hrs by Annexin V-FITC staining based flow cytometry; assay type: functional
MGC-803 [17] = assay: Induction of apoptosis in human MGC803 cells assessed as late apoptotic cell level at 10 uM after 12 hrs by AO/EB staining based fluorescence microscopy; assay type: functional
MGC-803 [18] = assay: Induction of apoptosis in human MGC803 cells at 10 uM after 24 hrs by Annexin V-FITC staining based flow cytometry; assay type: functional
MGC-803 [19] = assay: Induction of apoptosis in human MGC803 cells at 1 uM after 12 hrs by Annexin V-FITC staining based flow cytometry; assay type: functional
MGC-803 [20] = assay: Induction of apoptosis in human MGC803 cells at 10 uM after 12 hrs by Annexin V-FITC staining based flow cytometry; assay type: functional
MGC-803 [21] = assay: Induction of apoptosis in human MGC803 cells at 5 uM after 24 hrs by Annexin V-FITC staining based flow cytometry; assay type: functional
Bcap37 [22] = assay: Induction of apoptosis in human Bcap37 cells assessed as DNA fragmentation at 10 uM after 12 hrs by TUNEL assay; assay type: functional, cell-based
MGC-803 [23] = assay: Induction of apoptosis in human MGC803 cells at 5 uM after 6 hrs by Annexin V-FITC staining based flow cytometry; assay type: functional
MGC-803 [24] = assay: Induction of apoptosis in human MGC803 cells assessed as cell volume reduction at 1 to 10 uM after 12 hrs by AO/EB staining based fluorescence microscopy; assay type: functional
MGC-803 [25] = assay: Induction of apoptosis in human MGC803 cells assessed as nuclear fragmentation at 1 to 10 uM after 12 hrs by AO/EB staining based fluorescence microscopy; assay type: functional, cell-based
Bcap37 [26] = assay: Induction of apoptosis in human Bcap37 cells assessed as chromatin condensation at 1 to 10 uM after 12 hrs by AO/EB staining based fluorescence microscopy; assay type: functional, cell-based
Bcap37 [27] = assay: Induction of apoptosis in human Bcap37 cells assessed as cell volume reduction at 1 to 10 uM after 12 hrs by AO/EB staining based fluorescence microscopy; assay type: functional
Bcap37 [28] = assay: Induction of apoptosis in human Bcap37 cells assessed as condensed chromatin at 1 to 10 uM after 12 hrs by Hoechst 33258 staining based fluorescence microscopy; assay type: functional, cell-based
Bcap37 [29] = assay: Induction of apoptosis in human Bcap37 cells assessed as nuclear fragmentation at 1 to 10 uM after 12 hrs by AO/EB staining based fluorescence microscopy; assay type: functional, cell-based
MGC-803 [30] = assay: Induction of apoptosis in human MGC803 cells assessed as chromatin condensation at 1 to 10 uM after 12 hrs by AO/EB staining based fluorescence microscopy; assay type: functional, cell-based
MGC-803 [31] = assay: Induction of apoptosis in human MGC803 cells assessed as condensed chromatin at 1 to 10 uM after 12 hrs by Hoechst 33258 staining based fluorescence microscopy; assay type: functional, cell-based

SMILES	IC50 (Bcap37 [1])	inhibition of growth at 10 µM (Bcap37 [2])	IC50 [3]	inhibition of growth at 10 µM (MGC-803 [4])	IC50 (MGC-803 [5])	inhibition of growth at 10 µM [6]	also measured
O=C(/C=C/c1ccc(Cl)c(Cl)c1)/C=C/c1ccccc1Oc1ncnc2ccc(Cl)cc12	21.2 µM	38.2%	18.3 µM	56.7%	16.1 µM	42.2%	
O=C(/C=C/c1ccc(Oc2ncnc3ccc(Cl)cc23)cc1)/C=C/c1ccc(Cl)c(Cl)c1	27.9 µM	34.5%	18.8 µM	50.5%	16.9 µM	33.5%	
O=C(/C=C/c1ccc(Cl)c([N+](=O)[O-])c1)/C=C/c1ccccc1Oc1ncnc2ccc(Cl)cc12	12.3 µM	52.5%	9.76 µM	70.2%	5.32 µM	62.5%	
O=C(/C=C/c1ccccc1Oc1ncnc2ccc(Cl)cc12)/C=C/c1cccc(Cl)c1Cl	11.5 µM	70.2%	8.35 µM	76.5%	5.21 µM	73.8%	
O=C(/C=C/c1ccc(Oc2ncnc3ccc(Cl)cc23)cc1)/C=C/c1cccc(Cl)c1Cl	14.3 µM	61.7%	10.2 µM	68.5%	7.3 µM	67.4%	
CC[C@@]1(O)C(=O)OCc2c1cc1n(c2=O)Cc2cc3cc(O)ccc3nc2-1 [HYDROXYCAMPTOTHECIN]							Activity (MGC-803 [7]): 1.3%; Activity (MGC-803 [8]): 3.8%; Activity (Bcap37 [9]): Active; Activity (Bcap37 [10]): Active; Activity (MGC-803 [11]): Active; Activity (MGC-803 [12]): Active; Activity (Bcap37 [13]): Active; Activity (MGC-803 [14]): Active; Activity (MGC-803 [15]): 6%; Activity (MGC-803 [16]): 3.5%; Activity (MGC-803 [17]): Active; Activity (MGC-803 [18]): 18.6%; Activity (MGC-803 [19]): 2.1%; Activity (MGC-803 [20]): 9.1%; Activity (MGC-803 [21]): 7.3%; Activity (Bcap37 [22]): Active; Activity (MGC-803 [23]): 1.8%
O=C(/C=C/c1ccc(Oc2ncnc3ccc(Cl)cc23)cc1)/C=C/c1cc([N+](=O)[O-])ccc1Cl	9.84 µM	72.5%	3.15 µM	86.7%	2.15 µM	76.8%	Activity (MGC-803 [7]): 1.2%; Activity (MGC-803 [8]): 4.3%; Activity (MGC-803 [11]): Active; Activity (MGC-803 [24]): Active; Activity (MGC-803 [15]): 5.6%; Activity (MGC-803 [16]): 4.2%; Activity (MGC-803 [25]): Active; Activity (Bcap37 [26]): Active; Activity (MGC-803 [18]): 21.9%; Activity (Bcap37 [27]): Active; Activity (MGC-803 [19]): 1.8%; Activity (Bcap37 [28]): Active; Activity (Bcap37 [29]): Active; Activity (MGC-803 [20]): 8.9%; Activity (MGC-803 [30]): Active; Activity (MGC-803 [21]): 9.8%; Activity (Bcap37 [22]): Active; Activity (MGC-803 [31]): Active; Activity (MGC-803 [23]): 1.7%
O=C(/C=C/c1cc([N+](=O)[O-])ccc1Cl)/C=C/c1ccccc1Oc1ncnc2ccc(Cl)cc12	8.47 µM	78.4%	2.51 µM	91.6%	1.96 µM	86.9%	Activity (MGC-803 [7]): 2%; Activity (MGC-803 [8]): 5.2%; Activity (MGC-803 [11]): Active; Activity (MGC-803 [24]): Active; Activity (MGC-803 [15]): 9.2%; Activity (MGC-803 [16]): 10.3%; Activity (MGC-803 [25]): Active; Activity (Bcap37 [26]): Active; Activity (MGC-803 [18]): 31.7%; Activity (Bcap37 [27]): Active; Activity (MGC-803 [19]): 3.5%; Activity (Bcap37 [28]): Active; Activity (Bcap37 [29]): Active; Activity (MGC-803 [20]): 15.7%; Activity (MGC-803 [30]): Active; Activity (MGC-803 [21]): 16.8%; Activity (Bcap37 [22]): Active; Activity (MGC-803 [31]): Active; Activity (MGC-803 [23]): 6.7%
O=C(/C=C/c1ccc(Oc2ncnc3ccc(Cl)cc23)cc1)/C=C/c1ccc(Cl)c([N+](=O)[O-])c1	16.2 µM	56.3%	11.8 µM	66.2%	7.19 µM	56.3%	
O=C(/C=C/c1ccccc1Oc1ncnc2ccc(Cl)cc12)/C=C/c1c(Cl)cccc1Cl	11.3 µM	67.1%	7.98 µM	69.3%	5.17 µM	70.1%	
COc1cccc2c1C(=O)c1c(O)c3c(c(O)c1C2=O)C[C@@](O)(C(=O)CO)C[C@@H]3O[C@H]1C[C@H](N)[C@H](O)[C@H](C)O1 [DOXORUBICIN HYDROCHLORIDE]	0.94 µM	96.2%	0.8 µM	95.8%	0.71 µM	93.5%	
O=C(/C=C/c1ccc(Oc2ncnc3ccc(Cl)cc23)cc1)/C=C/c1c(Cl)cccc1Cl	13.8 µM	62.5%	9.3 µM	61.7%	6.77 µM	67.5%	
